Measurements from paper PMC6872521, “An in silico—in vitro Pipeline Identifying an HLA-A^*02:01^+ KRAS G12V^+ Spliced Epitope Candidate for a Broad Tumor-Immune Response in Cancer Patients” (Frontiers in Immunology, 2019).

What was measured:
[1] = test system: TAPs (transporters associated with antigen processing); assay: TAP assay: competition with a fluorescent reference peptide for TAP-dependent translocation into microsomes; assay type: biochemical; details: competition with fluorescent tracer peptide; microsomes from LCL721 cells; 10 mM ATP mixture; 20 min at 37°C; fluorescence read-out; signal without ATP subtracted; result in words (EC50 values only in Figure 6B)
Protocol: The transport efficiency of target peptides (Supplementary Table 2) into the ER lumen mediated by TAPs was carried out as previously described ([29]) although some modifications were introduced. These include the use of a fluorescent peptide tracer and the use of microsomes rather than Streptolysin O permeabilized cells. Briefly, peptides were dissolved in DMSO and different concentrations were distributed in a final volume of 10 μl DMSO. At the same time, a mixture of 10 mM ATP, 100 mM Tris-HCl pH7.5 and 5 mM MgCl2 and fluorescent tracer peptide was prepared. 60 μl of this mixture was added to the 10 μl competing peptide mixture to a final volume of 70 μl. This was prewarmed to 37°C and 30 μl of pre-warmed microsomes were added. Microsomes were derived from LCL721 cells, as previously described ([29]).
The mixture was incubated for 20 min at 37°C followed by cell lysis with lysis mixture (0.5% TX100, 5 mM MgCl2 in 100 mM Tris-HCl pH7.5) at 4°C. After at least 30 min incubation at 4°C, DNA was pelleted and the supernatant transferred to a new vial including ConA-beads. After at least 30 min incubation on ice, cells were washed four times with lysis mixture and the last time with 100 mM Tris-HCl pH7.5 before transfer to 96 wells plates (Corning) followed by fluorescence measurements in a plate reader. To detect background signals, a sample without competing peptide and ATP was included and fully performed as described above. This signal was subtracted from the detected signal.
To quantify the efficiency of peptide transport into the ER lumen by TAP, we measured the competition between the target peptides and a fluorescent reference peptide for TAP-dependent translocation into free microsomes.

[2] = biological target: HLA-A*02:01 complex (Homo sapiens, UniProt P04439, D140Y/D185E/D98H/E176V/E277Q/G131W/G231S/I119V/I121R/I166T/I218V/L300P/L318F/N151K/N90K/P208A/P217A/Q86G/Q94H/R138H/R169H/T345S); assay: HLA-A*02:01-peptide binding affinity measured with purified HLA-I molecules; details: cell-free system, values only in Figure 6C
Protocol: The binding affinity between theoretical spliced and non-spliced peptides and HLA-A^*02:01 was predicted using the NetMHCPan 3.0 algorithm ([30]). […] The binding affinity between the synthetic peptides and HLA-A^*02:01 complexes was measured using purified HLA-I molecules, as described elsewhere ([10]).
Once a peptide arrives in the ER lumen, its binding affinity to the specific HLA-I molecule determines whether it will ultimately be presented. Therefore, we measured the binding affinity of the same six peptides previously tested in the TAP assay and the HLA-A^*02:01 complex in a cell-free system utilizing purified HLA-I molecules.

[3] = test system: Transduced human CD8+ T cells; details: TCRs isolated from humanized ABabDII mice, transduced into human PBMCs; cited from earlier work
Source text: Our pipeline identifies epitope candidates which shall further be validated by isolating specific CTL clones and their TCRs and using them to confirm that the epitope candidates are produced in cellulo and eventually in vivo. There are several strategies to this end. For example, the KRAS5−6/8−14 spliced epitope candidate here identified has been validated in collaboration with Blankenstein et al. ([56]). Specific TCRs have been isolated from humanized ABabDII mice ([57]), cloned into expressing vectors and transduced into human PBMCs.

[4] = test system: PBMCs of pancreatic adenocarcinoma patients; details: cited from earlier work

| Compound | Transport efficiency into the ER lumen mediated by TAPs [1] | Binding to HLA-A*02:01 complex (result in words) [2] | Recognition of the epitope by TCR-transduced human CD8+ T cells [3] | Recognition by PBMCs of pancreatic adenocarcinoma patients [4] |
| --- | --- | --- | --- | --- |
| KLVVVAVGV [peptide #2] | not competing with the reference peptide |  |  |  |
| YLVVVGAVGV [peptide #1] | transported by TAP as efficiently as the non-spliced epitope candidate |  |  |  |
| [KL][VVGAVGV] [KRAS5−6/8−14 G12V] | efficiently transported by TAPs | efficiently bind | selectively recognized |  |
| CC(C)C[C@H](NC(=O)[C@@H](N)CCCCN)C(=O)N[C@H](C(=O)N[C@H](C(=O)N[C@H](C(=O)NCC(=O)N[C@@H](C)C(=O)N[C@H](C(=O)NCC(=O)N[C@H](C(=O)O)C(C)C)C(C)C)C(C)C)C(C)C)C(C)C [KRAS5−14 G12V] |  |  |  | recognized by PBMCs |
